Source: publication PMC9804871, “Effect of Opicapone on Levodopa Pharmacokinetics in Patients with Fluctuating Parkinson's Disease” (Movement Disorders, 2022)

Tested on: patients with PD and end-of-dose motor fluctuations
Assay: 12-hour patient on/off monitoring on pharmacokinetics days
Format: in vivo, human (patients with PD)
Details: for Time to Best-ON / Time to ON / OFF-time / ON-time / ON-time With Dyskinesia / ON-time Without Dyskinesia: mean; for 12-hour OFF-time / 12-hour ON-time / 12-hour ON-time With Dyskinesia / 12-hour ON-time Without Dyskinesia / 12-hour Time to Best-ON / 12-hour Time to ON: mean (SD)
Protocol: Clinical and safety/tolerability outcomes were also assessed as exploratory secondary outcomes. Clinical outcomes included on and off time assessed using patient‐rated tools. The timing of on and off states was registered (in real time) by the investigators during the matching 12‐hour pharmacokinetic evaluation (as such applied on pharmacokinetics days only), and patients also completed 24‐hour patient Hauser on/off diary charts[21] (in 30‐minute blocks) during the 3 days before each pharmacokinetic visit. Diary states of interest were off time and on time, including on without dyskinesia, on with nontroublesome dyskinesia, and on with troublesome dyskinesia. In addition, the Patient Global Impression of Change (PGI‐C) of opicapone 50 mg was evaluated at the end of the LD/CD 400/100 mg plus opicapone treatment compared with before the start of opicapone treatment.[22] Safety and tolerability endpoints included treatment‐emergent adverse events (TEAEs), serious TEAEs, and TEAEs leading to discontinuation.
Clinical outcomes are also presented descriptively. A paired t test was used for the comparison of 12‐hour off and on time, 24‐hour off and on time, time to on, and time to best on between each opicapone‐containing regimen and the regimen without opicapone. Estimates of mean difference and corresponding 90% CIs were reported for all main variables.

[1] = 5-intake LD/CD 500/125mg vs 4-intake LD/CD 400/100mg plus OPC 50mg, 2nd LD/CD intake
[2] = 5-intake LD/CD 500/125mg vs 4-intake LD/CD 400/100mg plus OPC 50mg, 3rd LD/CD intake
[3] = 5-intake LD/CD 500/125mg vs 4-intake LD/CD 400/100mg plus OPC 50mg, 4th LD/CD intake
[4] = 5-intake LD/CD 500/125mg vs 4-intake LD/CD 400/100mg plus OPC 50mg
[5] = 5-intake LD/CD 500/125mg vs 5-intake LD/CD 400/100mg plus OPC 50mg, 1st LD/CD intake
[6] = 5-intake LD/CD 500/125mg vs 5-intake LD/CD 400/100mg plus OPC 50mg, 2nd LD/CD intake
[7] = 5-intake LD/CD 500/125mg vs 5-intake LD/CD 400/100mg plus OPC 50mg, 3rd LD/CD intake
[8] = 5-intake LD/CD 500/125mg vs 5-intake LD/CD 400/100mg plus OPC 50mg, 4th LD/CD intake
[9] = 5-intake LD/CD 500/125mg vs 5-intake LD/CD 400/100mg plus OPC 50mg
[10] = five-intake levodopa/carbidopa 500/125 mg vs five-intake levodopa/carbidopa 400/100 mg plus opicapone 50 mg, N 9
[11] = five-intake levodopa/carbidopa 500/125 mg vs four-intake levodopa/carbidopa 400/100 mg plus opicapone 50 mg, N 10
[12] = five-intake levodopa/carbidopa 500/125 mg vs four-intake levodopa/carbidopa 400/100 mg plus opicapone 50 mg, N 12

## levodopa/carbidopa [LD/CD]
[1]
  Time to Best-ON: 58.8 min
  Time to ON: 50.0 min
[2]
  OFF-time: 89.5 min
  ON-time: 90.5 min
  ON-time With Dyskinesia: 23.8 min
  ON-time Without Dyskinesia: 81.8 min
  Time to Best-ON: 62.0 min
  Time to ON: 40.5 min
[3]
  OFF-time: 84.6 min
  ON-time: 91.3 min
  ON-time With Dyskinesia: 22.5 min
  ON-time Without Dyskinesia: 87.5 min
  Time to Best-ON: 57.9 min
  Time to ON: 42.1 min
[4]
  12-hour OFF-time: 353.3 (80.46) min
  12-hour ON-time: 347.5 (92.53) min
  12-hour ON-time With Dyskinesia: 60.0 (45.14) min
  12-hour ON-time Without Dyskinesia: 322.5 (106.27) min
  12-hour Time to Best-ON: 59.22 (14.92) min
  12-hour Time to ON: 46.14 (12.38) min
[5]
  OFF-time: 88.5 min
  ON-time: 91.5 min
  ON-time With Dyskinesia: 33.8 min
  ON-time Without Dyskinesia: 79.2 min
  Time to Best-ON: 62.7 min
  Time to ON: 41.5 min
[6]
  OFF-time: 103.0 min
  ON-time: 77.0 min
  ON-time With Dyskinesia: 27.5 min
  ON-time Without Dyskinesia: 71.5 min
  Time to Best-ON: 51.7 min
  Time to ON: 36.0 min
[7]
  OFF-time: 86.5 min
  ON-time: 93.5 min
  ON-time With Dyskinesia: 31.7 min
  ON-time Without Dyskinesia: 74.5 min
  Time to Best-ON: 50.0 min
  Time to ON: 44.5 min
[8]
  OFF-time: 96.0 min
  ON-time: 81.0 min
  ON-time With Dyskinesia: 27.5 min
  ON-time Without Dyskinesia: 75.5 min
  Time to Best-ON: 57.5 min
  Time to ON: 52.5 min
[9]
  12-hour OFF-time: 348.1 (103.9) min
  12-hour ON-time: 320.1 (83.80) min
  12-hour ON-time With Dyskinesia: 72.5 (24.24) min
  12-hour ON-time Without Dyskinesia: 280.5 (71.44) min
  12-hour Time to Best-ON: 55.46 (14.86) min
  12-hour Time to ON: 43.13 (11.32) min
[10]
  12-h off time, geometric mean (90% CI): 376.9 (349.9, 406.0) min
  12-h on time, geometric mean (90% CI): 333.1 (298.8, 371.2) min
five-intake levodopa/carbidopa 500/125 mg vs five-intake levodopa/carbidopa 400/100 mg plus opicapone 50 mg, N 10
  12-h time to on, geometric mean (90% CI): 41.84 (36.03, 48.59) min
five-intake levodopa/carbidopa 500/125 mg vs five-intake levodopa/carbidopa 400/100 mg plus opicapone 50 mg, N 12
  12-h time to best on, geometric mean (90% CI): 53.97 (47.84, 60.89) min
[11]
  12-h off time, geometric mean (90% CI): 356.4 (313.2, 405.5) min
  12-h on time, geometric mean (90% CI): 340.3 (292.0, 396.7) min
[12]
  12-h time to best on, geometric mean (90% CI): 57.62 (50.84, 65.31) min
  12-h time to on, geometric mean (90% CI): 44.62 (38.75, 51.39) min
